In this experiment the test system is Plasmodium berghei. Put plainly: Luciferase/luciferin-expressing antifolate-resistant parasites were used to infect a culture of HepG2 cells that were pre-incubated with compounds. Infected hepatocytes emit light due to the luciferase reaction. Assay results are presented as the percent inhibition of light emission compared to control. […]. The format is functional. As to conditions: sporozoite; for IC50: read-out: LUCIFERASE INFECTION ASSAY - IC50; for IC90: read-out: LUCIFERASE INFECTION ASSAY - IC90.

Results on 67 compounds are retold here after ChEMBL document CHEMBL4483862, “Open-source discovery of chemical leads for next-generation chemoprotective antimalarials” (2018).

Each structure is given as a SMILES string.

For the compound `N#Cc1ccsc1NC(=O)c1ccc(Cl)c([N+](=O)[O-])c1`, the IC50 was above 10 µM and the IC90 is above 10 µM.

Turning to `CCOC(=O)/C=C/C(=O)OCC(=O)NC(c1ccccc1)c1ccccc1`, the IC50 was above 10 µM and the IC90 was above 10 µM.

As to `C/C(=N\Nc1nc2ccccc2[nH]1)c1ccc(N2CCOCC2)cc1`, the half-inhibitory concentration (IC50) is above 10 µM and the IC90 was above 10 µM.

Regarding `C/C(N)=C(/C#N)C(=O)COC(=O)c1cc(-c2cccc3ccccc23)nc2ccccc12`, the IC50 was above 10 µM and the IC90 is above 10 µM.

`Cc1ccc(Nc2nc(COC(=O)c3ccccc3Sc3ccc(C(F)(F)F)cc3[N+](=O)[O-])cs2)cc1`: the half-maximal inhibitory concentration (IC50) was above 10 µM and the IC90 is above 10 µM.

Turning to `O=C(Nc1ccccc1)c1ccccc1OCC(O)COCc1ccc(Cl)cc1` (centres undefined), the IC50 is above 10 µM and the IC90 was above 10 µM.

Take `Cc1ccc(-c2cc(C(=O)N(C)Cc3ccc(C(=O)NC4CC4)cc3)on2)cc1`: the IC50 is above 10 µM and the IC90 was above 10 µM.

For the compound `Cc1nc2cc(NC(C)C(=O)Nc3ccc([N+](=O)[O-])cc3Cl)ccc2o1` (centres undefined), the IC50 was above 10 µM and the IC90 was above 10 µM.

As for `NC(=O)c1cccc(CNc2cnn(CCOc3ccc(Cl)cc3)c(=O)c2Cl)c1`, the IC50 is 2.11 µM and the IC90 is above 10 µM.

Turning to `Cc1c(C(=O)OCc2ccccc2C(F)(F)F)sc2ncn(C)c(=O)c12`, the IC50 turned out to be 8.3 µM and the IC90 is above 10 µM.

Take `Cn1c(=O)[nH]c(=O)c2c1nc(Nc1ccc(Cl)cc1Cl)n2CC(=O)O`: the IC50 was above 10 µM and the IC90 is above 10 µM.

In the case of `CC1C(OC(=O)c2ccc(CS(C)(=O)=O)cc2)CC2CC1C2(C)C` (centres undefined), the IC50 was above 10 µM and the IC90 is above 10 µM.

As for `COc1ccc(OCCCN2CCN(C(=O)C34CC5CC(CC(C5)C3)C4)CC2)cc1`, the 50% inhibitory concentration (IC50) was above 10 µM and the IC90 is above 10 µM.

As to `COc1ccc(OCCSCc2cc(=O)n3c4c(sc3n2)CCCC4)cc1`, the 50% inhibitory concentration (IC50) is above 10 µM and the concentration for an effect of 90% (IC90) is above 10 µM.

In the case of `NC(=O)C1CN(S(=O)(=O)c2cc(Cl)sc2Cl)c2ccccc2O1` (centres undefined), the IC50 was above 10 µM and the IC90 was above 10 µM.

Consider `NC(=O)c1ccc(N2CCNCC2)nc1`, for which the IC50 is above 10 µM and the IC90 is above 10 µM.

As to `CS(=O)(=O)c1ccc(N2CCCN(c3ccc(C(F)(F)F)cn3)CC2)c([N+](=O)[O-])c1`, the IC50 was above 10 µM and the IC90 is above 10 µM.

Regarding `CN(CC(=O)Nc1nc(-c2c[nH]c3ccccc23)cs1)C1CCCCC1`, the IC50 was above 10 µM and the IC90 is above 10 µM.

Take `Cc1cc(OCC(=O)NC(C)c2ccc(-n3cncn3)cc2)no1` (centres undefined): the IC50 is above 10 µM and the IC90 was above 10 µM.

As for `Cc1sc(-c2ccco2)nc1C(=O)Nn1cnc2ccccc21`, the IC50 is above 10 µM and the IC90 is above 10 µM.

As for `O=C(Nc1cccc(Cl)c1)N1CCN(C(=O)c2ccoc2)CC1`, the half-inhibitory concentration (IC50) was above 10 µM and the IC90 is above 10 µM.

`O=C(NC1CC1)c1ccc(CN(C2CC2)S(=O)(=O)c2cccc3c2N=S=N3)cc1`: the IC50 was above 10 µM and the IC90 is above 10 µM.

Take `Cn1c(N)c(C(=O)COC(=O)c2ccccc2NCCC2=CCCCC2)c(=O)n(C)c1=O`: the IC50 is above 10 µM and the IC90 is above 10 µM.

Take `O=C(Cn1[nH]c(=O)c2ccccc2c1=O)NCc1ccc(CN2CCOCC2)cc1`: the IC50 is above 10 µM and the IC90 was above 10 µM.

On to `CCCN(CC(=O)Nc1scc(-c2ccccc2)c1C(=O)OCC)Cc1nnc(-c2ccco2)o1`, for which the 50% inhibitory concentration (IC50) was above 10 µM and the IC90 was above 10 µM.

For `COCCN(Cc1nc(=O)c2ccccc2[nH]1)C(=O)C1=NN(c2ccccc2)C(c2ccccc2)C1` (centres undefined), the IC50 is above 10 µM and the concentration for an effect of 90% (IC90) is above 10 µM.

Consider `CCCC1NC(=O)N(CC(O)COc2cccc(C(=O)OCC)c2)C1=O` (centres undefined), for which the IC50 is above 10 µM and the IC90 was above 10 µM.

As for `CNC(=O)Cc1ccc(NC(=O)CCSC)cc1`, the concentration for half-maximal inhibition (IC50) is above 10 µM and the IC90 was above 10 µM.

For the compound `CC(C)c1cc(=O)oc2cc(OS(=O)(=O)c3cc(C(N)=O)n(C)c3)ccc12`, the IC50 is above 10 µM and the IC90 is above 10 µM.

Turning to `Cn1cc(/C=C/C(=O)c2ccc(-c3ccc(F)cc3)s2)cn1`, the IC50 was above 10 µM and the IC90 is above 10 µM.

As to `Cc1cc2oc(=O)cc(CN3CCN(S(=O)(=O)c4ccc([N+](=O)[O-])cc4)CC3)c2cc1Cl`, the IC50 amounted to 4.19 µM and the IC90 came to 8.57 µM.

For `NC(=O)c1ccc(C(F)(F)F)n(CC(=O)c2ccc3c(c2)OCCO3)c1=O`, the IC50 is above 10 µM and the 90% effect concentration (IC90) is above 10 µM.

With `Cn1c(NCCOc2cccc3c2OC(C)(C)C3)c(C#N)c(=O)n(C)c1=O`, the IC50 was above 10 µM and the IC90 is above 10 µM.

As for `CNc1snc(C)c1C(=O)NCC(C(C)C)N1CCc2ccccc2C1` (centres undefined), the IC50 is above 10 µM and the IC90 is above 10 µM.

On to `Cc1ccc(-c2cc(C(=O)NNC(=O)c3nn(C)c(=O)c4ccccc34)[nH]n2)cc1`, for which the IC50 is above 10 µM and the IC90 was above 10 µM.

Consider `CC(C(=O)NC(C)(C)C)N1CCN(CC(=O)Nc2ccc(F)cc2)CC1` (centres undefined), for which the IC50 is above 10 µM and the IC90 was above 10 µM.

As for `Cc1ccc(C)c(S(=O)(=O)CCN2C(=O)C(=O)N(Cc3cccs3)C2=O)c1`, the IC50 is above 10 µM and the 90% effect concentration (IC90) is above 10 µM.

On to `Cc1nn(CC(=O)Nc2cc(C(F)(F)F)ccc2Oc2ccc(Br)cc2)c(=O)c(C#N)c1C`, for which the IC50 was above 10 µM and the IC90 is above 10 µM.

Turning to `Cc1nc(Cc2nc(-c3ccc(S(C)(=O)=O)cc3)cs2)cs1`, the IC50 is above 10 µM and the IC90 is above 10 µM.

Regarding `CCN(c1ccccc1)S(=O)(=O)c1ccc(Cl)c(C(=O)Nc2ccn(C)n2)c1`, the IC50 was above 10 µM and the 90% effect concentration (IC90) is above 10 µM.

As to `Cc1ccc(-c2nc(C)sc2CC(=O)NC2CCN(C3CC3)C2)cc1` (centres undefined), the IC50 was above 10 µM and the concentration for an effect of 90% (IC90) was above 10 µM.

For `CN(Cc1cn(-c2ccccc2)nc1-c1ccccc1)C(=O)NCCCc1nc2ccccc2[nH]1`, the IC50 was above 10 µM and the concentration for an effect of 90% (IC90) was above 10 µM.

With `COc1ccc(F)cc1-c1csc(-c2ccc(NC(=O)c3cccs3)cc2)n1`, the IC50 was above 10 µM and the IC90 is above 10 µM.

As to `CCN(CC)S(=O)(=O)c1ccc2nnc(Sc3nc(C)nc4sc5c(c34)CCCC5)n2c1`, the IC50 is above 10 µM and the IC90 is above 10 µM.

Take `CN(Cc1nc(-c2ccccc2)c2ccccc2n1)Cc1nc(=O)c2ccccc2[nH]1`: the IC50 was above 10 µM and the IC90 was above 10 µM.

For the compound `COC(=O)c1cc([N+](=O)[O-])ccc1N1CCN(c2cc(C)nc(C(C)C)n2)CC1`, the IC50 was above 10 µM and the IC90 is above 10 µM.

For `COC(=O)c1cc2ccccc2cc1OC(=O)COc1ccc(C#N)cc1`, the IC50 is above 10 µM and the IC90 is above 10 µM.

Consider `Cc1sc(NC(=O)CC(C)NC(=O)c2ccccc2)nc1-c1ccc(F)c(F)c1` (centres undefined), for which the IC50 was above 10 µM and the IC90 was above 10 µM.

With `CC(Nc1ccc(C(N)=O)cc1[N+](=O)[O-])C12CC3CC(CC(C3)C1)C2` (centres undefined), the IC50 worked out at 5.52 µM and the IC90 was above 10 µM.

For the compound `Cn1c(CSc2nc3ccccc3s2)nn(CN2CCCc3ncccc32)c1=S`, the IC50 is above 10 µM and the 90% effect concentration (IC90) was above 10 µM.

Turning to `N#Cc1c(CCCNC(=O)/C=C/c2ccc(Cl)c(C(F)(F)F)c2)nn(-c2ccc(F)cc2)c1N`, the IC50 was above 10 µM and the IC90 is above 10 µM.

On to `CC(C)(C)C(=O)N1CCC(C(=O)N(Cc2ccccc2)c2nc3c(s2)CCCC3)CC1`, for which the IC50 was above 10 µM and the IC90 is above 10 µM.

Regarding `CCc1cc(=O)oc2cc(OCc3csc(N(C(C)=O)c4cccc(C)c4)n3)ccc12`, the IC50 was above 10 µM and the IC90 was above 10 µM.

As to `CC(C)c1ccc(CSc2nnc(CC3CCS(=O)(=O)C3)o2)cc1` (centres undefined), the IC50 is above 10 µM and the IC90 is above 10 µM.

As to `Cc1ccc2nc(COc3ccc(C(=O)NC4(C)CCS(=O)(=O)C4)cc3)cn2c1` (centres undefined), the IC50 is above 10 µM and the IC90 was above 10 µM.

As for `COc1ccc(-c2ccc(CCC(=O)Nc3sccc3C#N)o2)cc1`, the IC50 was 7.82 µM and the IC90 is above 10 µM.

For the compound `CCCCNC(=O)NCCc1ccc2c(c1)OCCO2`, the IC50 was above 10 µM and the IC90 is above 10 µM.

Regarding `Cc1ccc(-n2nc(C)c(NC(=O)Cn3c(NCc4ccccc4)nc4ccccc43)c2C)cc1`, the concentration for half-maximal inhibition (IC50) was above 10 µM and the IC90 is above 10 µM.

On to `NC(=O)C1Cc2ccccc2CN1S(=O)(=O)c1cccc2c1N=S=N2` (centres undefined), for which the IC50 is above 10 µM and the IC90 is above 10 µM.

For the compound `CNS(=O)(=O)c1ccc(CCC(=O)OC2CCCCC2=O)cc1` (centres undefined), the IC50 was above 10 µM and the concentration for an effect of 90% (IC90) is above 10 µM.

As to `Cc1nc2sccn2c1C(=O)c1ccc(NS(=O)(=O)c2cc(C(=O)O)n(C)c2)cc1`, the IC50 is above 10 µM and the IC90 is above 10 µM.

As to `O=C1N(Cc2ccccc2)c2ccccc2C12Oc1ccc(Br)cc1-c1cc(-c3ccccc3)nn12` (centres undefined), the IC50 came out at 9.29 µM and the IC90 was above 10 µM.

As to `CCCn1c(NC(=O)C2CCN(c3ccc4nnc(C(F)(F)F)n4n3)CC2)nc2ccccc21`, the IC50 turned out to be 6.49 µM and the IC90 is above 10 µM.

For the compound `CCOc1cc(CN(C)c2cncc(-n3cccn3)n2)ccc1OC(F)F`, the IC50 is above 10 µM and the IC90 was above 10 µM.

For the compound `CC(C)(C)c1ccc(/C=C/C(=O)NCc2ccc(NC(=O)C3CC3)cc2)cc1`, the concentration for half-maximal inhibition (IC50) was found to be 2.38 µM and the IC90 was 6.63 µM.

With `CC1CC(C)CN(S(=O)(=O)N2CCN(c3ccc(C(F)(F)F)cc3[N+](=O)[O-])CC2)C1` (centres undefined), the IC50 was above 10 µM and the IC90 was above 10 µM.

Take `CC(C)(C)c1ccc(/C=C2\CCCc3c2nc2ccccc2c3C(=O)OCC(=O)N2CCOCC2)cc1`: the IC50 is 8.09 µM and the IC90 is above 10 µM.

As usually defined, the IC50 is the concentration needed to halve the response being measured. In general, IC90 refers to the concentration needed for an effect of 90%.
